# Assay results taken from patent US11203633B2, “Polynucleotides encoding antibodies or antigen binding fragments thereof that bind pseudomonas perv” (priority 2011, dated 2021).
# Key:
# [1] = tested on: Psl exopolysaccharide (P. aeruginosa PAO1 and isogenic mutants); test: Indirect ELISA / FACS binding to PAO1 and isogenic mutants; parameters: species or system Pseudomonas aeruginosa; details: for binding (indirect ELISA): FIG. 3A; for binding (ELISA): FIG. 3E
# From the text: In addition, duplication of VH CDR3 loop sequences in the libraries (a measure of clonal enrichment during selection), was also found to be higher in the patient library, reaching 88-92%, compared to 15-25% in the naïve library at round 3 (FIG. 1D). Individual scFv phage from affinity selections were next screened by ELISA for reactivity to P. aeruginosa heterologous serotype strains (FIG. 1E). ELISA plates (Nunc; MAXISORP™) were coated with P. aeruginosa strains from overnight cultures as described (DiGiandomenico, A., et al., Infect Immun 72, 7012-7021 (2004)). Diluted antibodies were added to blocked plates for 1 hour, washed, and treated with HRP-conjugated anti-human secondary antibodies for 1 hour followed by development and analysis as described (Ulbrandt, N. D., et al., J Virol 80, 7799-7806 (2006)). The dominant species of phage obtained from whole cell selections with both libraries yielded serotype specific reactivity (data not shown).
# For IgG expression, the VH and VL chains of selected antibodies were cloned into human IgG1 expression vectors, co-expressed in HEK293 cells, and purified by protein A affinity chromatography as described (Persic, L., et al., Gene 187, 9-18 (1997)). Human IgG1 antibodies made with the variable regions from these selected serotype independent phage were confirmed for P. aeruginosa specificity and prioritized for subsequent analysis by whole cell binding to dominant clinically relevant serotypes by FACS analysis (FIG. 1F), since this method is more stringent than ELISA. For the flow cytometry based binding assays mid-log phase P. aeruginosa strains were concentrated in PBS to an OD650 of 2.0. After incubation of antibody (10 μg/mL) and bacteria (˜1×10^7 cells) for 1 hr at 4° C. with shaking, washed cells were incubated with an ALEXA FLUOR 647® goat anti-human IgG antibody (Invitrogen, Carlsbad, Calif.) for 0.5 hr at 4° C. Washed cells were stained with BACLIGHT™ green bacterial stain as recommended (Invitrogen, Carlsbad, Calif.). Samples were run on a LSR II flow cytometer (BD Biosciences) and analyzed using BD FacsDiva (v. 6.1.3) and FlowJo (v. 9.2; TreeStar).
# This example describes identification of the target of anti-P. aeruginosa antibodies derived from phenotypic screening. Target analysis was performed to test whether the serotype independent antibodies targeted protein or carbohydrate antigens. […] Isogenic mutants were constructed in genes responsible for 0-antigen, alginate, and LPS core biosynthesis; wbpL (O-antigen-deficient); wbpL/algD (O-antigen and alginate deficient); rmlC (O-antigen-deficient and truncated outer core); and galU (O-antigen-deficient and truncated inner core). P. aeruginosa mutants were constructed based on the allele replacement strategy described by Schweizer (Schweizer, H. P., Mol Microbiol 6, 1195-1204 (1992); Schweizer, H. D., Biotechniques 15, 831-834 (1993)). Vectors were mobilized from E. coli strain 517.1 into P. aeruginosa strain PAO1; recombinants were isolated as described (Hoang, T. T., et al., Gene 212, 77-86 (1998)). Gene deletion was confirmed by PCR. P. aeruginosa mutants were complemented with pUCP30T-based constructs harboring wild type genes. […] The rmlC and galU genes were recently shown to be required for biosynthesis of the Psl exopolysaccharide, a repeating pentasaccharide polymer consisting of D-mannose, L-rhamnose, and D-glucose. Cam-003 binding to an isogenic pslA knockout PAO1ΔpslA, was tested, as pslA is required for Psl biosynthesis (Byrd, M. S., et al., Mol Microbiol 73, 622-638 (2009)). Binding of Cam-003 to PAO1ΔpslA was abolished when tested by ELISA (FIG. 3B) and FACS (FIG. 3C), while the LPS molecule in this mutant was unaffected (FIG. 3D). Binding of Cam-003 was restored in a PAO1ΔwbpL/algD/pslA triple mutant complemented with pslA (FIG. 3E) as was the ability of Cam-003 to mediate opsonic killing to complemented PAO1ΔpslA in contrast to the mutant (FIGS. 3F and 3G). […]
# [2] = tested on: P. aeruginosa strain 6077 (O11-cytotoxic); test: Corneal infection (ocular keratitis) model in mice; assay type: in vivo, Pseudomonas aeruginosa; details: C3H/HeN mice; IP, 16 hours prior to infection with 6077 1×10^6 CFU; graded at 48 h; FIG. 8H
# Description: Antibodies or PBS were administered 24 hours before infection in each model. P. aeruginosa acute pneumonia, keratitis, and thermal injury infection models were performed as described (DiGiandomenico, A., et al., Proc Natl Acad Sci USA 104, 4624-4629 (2007)), with modifications. In the acute pneumonia model, BALB/c mice (The Jackson Laboratory) were infected with P. aeruginosa strains suspended in a 0.05 ml inoculum. In the thermal injury model, CF-1 mice (Charles River) received a 10% total body surface area burn with a metal brand heated to 92° C. for 10 seconds. Animals were infected subcutaneously with P. aeruginosa strain 6077 at the indicated dose. For organ burden experiments, acute pneumonia was induced in mice followed by harvesting of lungs, spleens, and kidneys 24 hours post-infection for determination of CFU.
# Cam-003 and WapR-004 efficacy was next evaluated in a P. aeruginosa corneal infection model which emphasizes the pathogens ability to attach and colonize damaged tissue. […] FIG. 8 (H): The activity of anti-Psl and anti-PcrV monoclonal antibodies V2L2 was tested in a P. aeruginosa mouse ocular keratitis model. […]
substance,measurement,setting,value
"Cam-003: anti-Psl human IgG1 monoclonal antibody; VH SEQ ID NO:1, VL SEQ ID NO:2",reactivity to LPS purified from PAO1,[1],not observed
same,binding (indirect ELISA),[1]; PAO1 rmlC and galU mutants,abolished
same,binding (indirect ELISA),[1]; PAO1 wbpL or wbpL/algD double mutant,unaffected
same,binding (ELISA and FACS),"[1]; PAO1ΔpslA, FIG. 3B-C",abolished
same,binding (ELISA),[1]; PAO1ΔwbpL/algD/pslA triple mutant complemented with pslA,restored
same,binding (ELISA),[1]; Pel exopolysaccharide mutant,unaffected
same,corneal pathology and CFU in total eye homogenates vs R347,[2],significantly less pathology and reduced bacterial colony forming units (CFU) in total eye homogenates
